Source: patent US20230116113A1, “USE OF COMPOUNDS THAT ARE ABLE TO CROSS-LINK THE EXTRACELLULAR MATRIX FOR PREVENTING OR INHIBITING THE MIGRATION OF CANCER CELLS” (CAMBRIDGE ENTERPRISE LIMITED, priority 2020, published 2023)
Entries after “also recorded” stand apart in the source; their conditions may differ. Values belong to the compound of their own block, whether it stands above or below them.

Tests used:
[1] = test system: K7M2 mouse osteosarcoma cell line; assay: Invasion of K7M2 osteosarcoma tumour spheroids into 3D 1.5 mg/ml collagen-medium model ECM; format: cell-based; conditions: monitored for 14 days
Description: Bone extracellular matrix consists primarily of calcified collagen type I. Calcification is invariably disrupted around metastasizing osteosarcoma tumours, allowing tumour cells to migrate through the extracellular matrix. Thus, we chose to model the bone/osteosarcoma extracellular matrix with a 3D 1.5 mg/ml collagen gel. This concentration of collagen gel promoted invasion by the K7M2 mouse osteosarcoma cell line (FIG. 9).
Collagen gels (1.5 mg/ml) in DMEM complete medium as model bone extracellular matrix was prepared from a stock 5 wt % collagen gel (IBIDI, Germany). K7M2 cells were cultured in DMEM complete medium supplemented with 10% foetal calf serum, antibiotics, and pyruvate. The cultures were maintained in T-75 cm^2 culture flasks and incubated at 37° C. and 5% CO2 in a humidified incubator. At 70% confluence, cells were detached from the surface of the flasks after incubating for 2 min at room temperature with 4 ml of trypsin-EDTA. The cell suspension was then centrifuged at 1400 rpm for 5 min at room temperature to pellet the cells. […]
Cell invasion was monitored for 14 days (FIG. 10). […]

[2] = cited from earlier work
U87 GBM cells [3] = test system: U87 GBM cells
Description: Calcein AM (acetoxymethyl), a non-fluorescent ester derivative of the fluorescent calcein dye, was used to determine the viability and integrity of spheroids. Spheroids were soaked in 1 uM calcein-AM in live cell imaging buffer for 45 minutes in a humidified 5% CO2 incubator. After incubation, the calcein-AM solution was removed, spheroids were washed three times with PBS and transferred with 50 μl of media to the top of hyaluronic acid-serum gels in chamber slide wells prepared as above. In controls, spheroids were placed into the wells with 300 μl of MEM complete supplemented medium.
(§1) Migration of cells from the spheroids, cell viability and the vertical position of the spheroid in the well were recorded on days 4, 7 and 16 using bright field, epifluorescence or confocal microscopy, before the samples were returned to the incubator to continue the experiment.

U87 cells = conditions: different trientine concentrations in phosphate-buffered saline
Description: FIG. 6: A. Optical images showing the effect of crosslinking 3D model brain ECM ionically with 5, 10 and 20 mM trientine on the migration of glioblastoma U87 cells from tumour spheroids compared to controls with no trientine crosslinking. […] B. Quantification of the extent of cancer cell migration in the 3D model brain ECM with addition of different trientine concentrations. C.

U87 GBM cells [4] = assay: Migration and proliferation of cells from U87 tumour spheroids in 3D hyaluronic acid-serum model brain ECM; format: cell-based; conditions: 5, 10 and 20 mM trientine mixed into 2 wt % HA-serum model ECM; days 1, 3, 6, 10
Description: We first established a 3D extracellular matrix (ECM) model for brain consisting of hyaluronic acid mixed with serum proteins to support GBM cell metabolism. We then used tumour spheroids, cultured from U87 GBM cell line cells, as 3D tumour models that we implanted into the hyaluronic acid-serum model brain ECM.
We fabricated hyaluronic acid-serum model brain ECMs containing 2 wt %, 3.5 wt % and 5 wt % hyaluronic acid to represent low, normal and high hyaluronic acid concentrations/levels of molecular entanglement with respect to brain extracellular matrix. The low hyaluronic acid concentration model ECMs can be expected to mimic an in vivo situation where there is substantial hyaluronic acid degradation and the high hyaluronic acid concentration was set to exceed the average hyaluronic acid concentration in brain ECM by 50%.
The different concentrations of hyaluronic acid-serum for model ECMs were prepared by mixing hyaluronic acid with MEM complete media and foetal calf serum. […]
as §1

Structure (SMILES): COC(=O)C1=CO[C@@H](O)[C@@H]2C(CO)=CC[C@H]12 [genipin]
cell invasion of model collagen extracellular matrix ([1]; 0.05 wt % genipin in 1.5 mg/ml collagen gel): only minimal invasion
cell invasion of model collagen extracellular matrix ([1]; 0.3 wt % genipin in 1.5 mg/ml collagen gel): no observable cell invasion
acute toxicity ([2]; literature statement): low acute toxicity
LD50 ([2]; mouse, in vivo, iv): 153 mg/kg

cell metabolic activity (calcein-AM staining) (U87 GBM cells [3]): remained metabolically active
Structure (SMILES): Cc1cc2nc3c(=O)[nH]c(=O)nc-3n(C[C@H](O)[C@H](O)[C@H](O)CO)c2cc1C [riboflavin]

Structure (SMILES): NCCNCCNCCN [trientine]
toxicity to U87 cells (live/dead cell analysis) (U87 cells): non-toxic to U87 cells
cell migration from U87 tumour spheroids (U87 GBM cells [4]): inhibited in a trientine-concentration dependent manner; also recorded: clearly inhibited
